# Data as given in PubChem BioAssay AID330 (DTP/NCI, 2004).
# Where “and” joins values, the source holds several entries; their conditions need not be identical. Identical values can stand only once. Toxic doses and inconclusive results are not listed.
# System: P388 leukemia ip, CD2F1 mice, survival T/C
# Assay: NCI In Vivo Anticancer Drug Screen. Data for tumor model P388 Leukemia (intraperitoneal) in CD2F1 (CDF1) mice
# Conditions: endpoint: median survival time, higher = longer survival
# How it was run: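 Mice carrying the transplanted tumor received test compound or vehicle. Survival was recorded in each group, and the value is the treated-group measurement divided by that of the vehicle-treated control group.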
# [1] = dose: 50.0 mg/kg/injection, schedule: Q01DX009 (ip), vehicle: Klucel (hydroxypropylcellulose) (HPC)
# [2] = dose: 100.0 mg/kg/injection, schedule: Q01DX009 (ip), vehicle: Klucel (hydroxypropylcellulose) (HPC)
# [3] = dose: 200.0 mg/kg/injection, schedule: Q01DX009 (ip), vehicle: Klucel (hydroxypropylcellulose) (HPC)
# [4] = dose: 100.0 mg/kg/injection, schedule: Q01DX001 (ip), vehicle: saline with Tween-80
# [5] = dose: 200.0 mg/kg/injection, schedule: Q01DX001 (ip), vehicle: saline with Tween-80
# [6] = dose: 400.0 mg/kg/injection, schedule: Q01DX001 (ip), vehicle: saline with Tween-80
# [7] = dose: 50.0 mg/kg/injection, schedule: Q01DX005 (ip), vehicle: saline with Tween-80
# [8] = dose: 60.0 mg/kg/injection, schedule: Q01DX005 (ip), vehicle: saline
# [9] = dose: 120.0 mg/kg/injection, schedule: Q01DX005 (ip), vehicle: saline
# [10] = dose: 240.0 mg/kg/injection, schedule: Q01DX005 (ip), vehicle: saline
# [11] = dose: 50.0 mg/kg/injection, schedule: Q01DX005 (ip), vehicle: Klucel (hydroxypropylcellulose) (HPC)
# [12] = dose: 100.0 mg/kg/injection, schedule: Q01DX005 (ip), vehicle: Klucel (hydroxypropylcellulose) (HPC)
# [13] = dose: 200.0 mg/kg/injection, schedule: Q01DX005 (ip), vehicle: Klucel (hydroxypropylcellulose) (HPC)
# [14] = dose: 60.0 mg/kg/injection, schedule: Q01DX005 (ip), vehicle: saline with Tween-80
# [15] = dose: 120.0 mg/kg/injection, schedule: Q01DX005 (ip), vehicle: saline with Tween-80
# [16] = dose: 240.0 mg/kg/injection, schedule: Q01DX005 (ip), vehicle: saline with Tween-80
# [17] = dose: 50.0 mg/kg/injection, schedule: Q01DX009 (ip), vehicle: saline with Tween-80
# [18] = dose: 100.0 mg/kg/injection, schedule: Q01DX009 (ip), vehicle: saline with Tween-80
compound,measurement,setting,value
O=S(=O)(NN=C(c1ccccc1)c1ccccc1)c1ccccc1,T/C,"dose: 25.0 mg/kg/injection, schedule: Q01DX009 (ip), vehicle: Klucel (hydroxypropylcellulose) (HPC)",99 % of control
same,T/C,[1],93 % of control
same,T/C,[2],101 % of control
same,T/C,[3],106 % of control
same,T/C,"dose: 400.0 mg/kg/injection, schedule: Q01DX009 (ip), vehicle: Klucel (hydroxypropylcellulose) (HPC)",90 % of control
CCOC(=O)/C(C#N)=C/C=C1/C=CC=CN1N=C(SC)SC,T/C,[4],95 % of control
same,T/C,[5],86 % of control
same,T/C,[6],87 % of control
CCCCCCCOc1ccc(OCCCC[N+]2(CC)CCCCC2)cc1,T/C,"dose: 1.56 mg/kg/injection, schedule: Q01DX009 (ip), vehicle: saline",103 % of control
same,T/C,"dose: 3.12 mg/kg/injection, schedule: Q01DX009 (ip), vehicle: saline",100 % of control
same,T/C,"dose: 6.25 mg/kg/injection, schedule: Q01DX009 (ip), vehicle: saline",102 % of control
CC1CCC(C)N(C)C1 (stereo not drawn),T/C,"dose: 25.0 mg/kg/injection, schedule: Q01DX005 (ip), vehicle: saline with Tween-80",98 % of control
same,T/C,[7],102 % of control
CCCCCc1onc(-c2noc(CCCCC)c2C)c1C,T/C,[8],100 % of control
same,T/C,[9],99 % of control
same,T/C,[10],104 % of control
c1ccc2c(c1)Nc1nccnc1[Se]2,T/C,"dose: 100.0 mg/kg/injection, schedule: Q04DX002 (ip), vehicle: Klucel (hydroxypropylcellulose) (HPC)",100 % of control
same,T/C,"dose: 200.0 mg/kg/injection, schedule: Q04DX002 (ip), vehicle: Klucel (hydroxypropylcellulose) (HPC)",101 % of control
same,T/C,"dose: 400.0 mg/kg/injection, schedule: Q04DX002 (ip), vehicle: Klucel (hydroxypropylcellulose) (HPC)",101 % of control
[Co].[N-]=C=S.[N-]=C=S.[N-]=C=S.[NH-]CC[N-]CC[NH-],T/C,"dose: 2.5 mg/kg/injection, schedule: Q01DX009 (ip), vehicle: saline",114 % of control
same,T/C,"dose: 5.0 mg/kg/injection, schedule: Q01DX009 (ip), vehicle: saline",114 % of control
same,T/C,"dose: 10.0 mg/kg/injection, schedule: Q01DX009 (ip), vehicle: saline",107 % of control
same,T/C,"dose: 22.0 mg/kg/injection, schedule: Q01DX009 (ip), vehicle: saline",88 % of control
same,T/C,"dose: 44.0 mg/kg/injection, schedule: Q01DX009 (ip), vehicle: saline",100 % of control
same,T/C,"dose: 50.0 mg/kg/injection, schedule: Q01DX009 (ip), vehicle: saline",118 % of control
O=C1Nc2cnc(Cl)nc2Nc2ccccc21,T/C,[11],99 % of control
same,T/C,[12],91 % of control
same,T/C,[13],101 % of control
Cc1csc(N=Nc2ccc(N(C)C)cc2)[n+]1[O-],T/C,[1],103 % of control
same,T/C,[2],109 % of control
same,T/C,[3],108 % of control
CCOC(=O)C1=C(C(=O)c2ccc(OC)cc2)C(c2c(Cl)cccc2Cl)C(C(=O)c2ccc(OC)cc2)=C(C(=O)OCC)N1,T/C,"dose: 30.0 mg/kg/injection, schedule: Q01DX005 (ip), vehicle: saline with Tween-80",86 % of control
same,T/C,[14],102 % of control and 93 % of control
same,T/C,[15],94 % of control
same,T/C,[16],93 % of control
OC1CC2CCCCC2CC1(O)c1ccc(OCc2ccccc2)c(OCc2ccccc2)c1 (stereo not drawn),T/C,"dose: 25.0 mg/kg/injection, schedule: Q01DX001 (ip), vehicle: saline with Tween-80",92 % of control
same,T/C,"dose: 50.0 mg/kg/injection, schedule: Q01DX001 (ip), vehicle: saline with Tween-80",88 % of control
same,T/C,[4],86 % of control
O=S1(=O)C2CCC(Cl)C1CCC2Cl (stereo not drawn),T/C,"dose: 75.0 mg/kg/injection, schedule: Q04DX003 (ip), vehicle: Klucel (hydroxypropylcellulose) (HPC)",98 % of control
same,T/C,"dose: 150.0 mg/kg/injection, schedule: Q04DX003 (ip), vehicle: Klucel (hydroxypropylcellulose) (HPC)",100 % of control
COc1cc2c(c(OC)c1OC)-c1ccc(=O)c(OC)cc1[C@@H](NC(=O)C(F)(F)F)CC2,T/C,"dose: 2.5 mg/kg/injection, schedule: Q01DX009 (ip), vehicle: Klucel (hydroxypropylcellulose) (HPC)",105 % of control
same,T/C,"dose: 5.0 mg/kg/injection, schedule: Q01DX009 (ip), vehicle: Klucel (hydroxypropylcellulose) (HPC)",97 % of control
same,T/C,"dose: 10.0 mg/kg/injection, schedule: Q01DX009 (ip), vehicle: Klucel (hydroxypropylcellulose) (HPC)",96 % of control
same,T/C,"dose: 20.0 mg/kg/injection, schedule: Q01DX009 (ip), vehicle: Klucel (hydroxypropylcellulose) (HPC)",105 % of control
same,T/C,"dose: 40.0 mg/kg/injection, schedule: Q01DX009 (ip), vehicle: Klucel (hydroxypropylcellulose) (HPC)",102 % of control
CN(C)c1ccc(N=Nc2ccc3ccc4c(N=Nc5ccc(N(C)C)cc5)ccc5ccc2c3c54)cc1,T/C,[1],106 % of control
same,T/C,[2],103 % of control
same,T/C,[3],103 % of control
O=C(CCl)N1CCN(c2ccccc2)CC1,T/C,[14],97 % of control
same,T/C,[15],100 % of control
same,T/C,[16],97 % of control
[O-][n+]1ccccc1[S][Sn]([Cl])([Cl])[S]c1cccc[n+]1[O-],T/C,[17],94 % of control
same,T/C,[18],106 % of control
same,T/C,"dose: 200.0 mg/kg/injection, schedule: Q01DX009 (ip), vehicle: saline with Tween-80",102 % of control
Fc1cccc(Cl)c1C(Nc1nncs1)Nc1nncs1,T/C,"dose: 120.0 mg/kg/injection, schedule: Q01DX005 (ip), vehicle: Klucel (hydroxypropylcellulose) (HPC)",171 % of control
same,T/C,"dose: 240.0 mg/kg/injection, schedule: Q01DX005 (ip), vehicle: Klucel (hydroxypropylcellulose) (HPC)",187 % of control and 194 % of control
COc1cccc(C(Cc2ccccc2)NCc2ccccc2)c1O (stereo not drawn),T/C,[7],105 % of control
same,T/C,"dose: 100.0 mg/kg/injection, schedule: Q01DX005 (ip), vehicle: saline with Tween-80",103 % of control
same,T/C,"dose: 200.0 mg/kg/injection, schedule: Q01DX005 (ip), vehicle: saline with Tween-80",101 % of control
CSNC(C)=O,T/C,"dose: 25.0 mg/kg/injection, schedule: Q01DX009 (ip), vehicle: saline with Tween-80",102 % of control
same,T/C,[17],109 % of control
same,T/C,[18],111 % of control
CC(=O)CC(=O)c1ccc(Br)cc1.CC(=O)CC(=O)c1ccc(Br)cc1.[Ni],T/C,[4],90 % of control
same,T/C,[5],87 % of control
same,T/C,[6],90 % of control
O=C(NCCCCCCCCCCNC(=O)N1CC1)N1CC1,T/C,"dose: 0.25 mg/kg/injection, schedule: Q04DX003 (ip), vehicle: saline with Tween-80",104 % of control
same,T/C,"dose: 0.5 mg/kg/injection, schedule: Q04DX003 (ip), vehicle: saline with Tween-80",108 % of control
same,T/C,"dose: 1.56 mg/kg/injection, schedule: Q01DX009 (ip), vehicle: saline with Tween-80",165 % of control
same,T/C,"dose: 2.0 mg/kg/injection, schedule: Q04DX003 (ip), vehicle: saline with Tween-80",159 % of control
same,T/C,"dose: 3.0 mg/kg/injection, schedule: Q04DX003 (ip), vehicle: saline with Tween-80",209 % of control
same,T/C,"dose: 3.13 mg/kg/injection, schedule: Q04DX003 (ip), vehicle: saline with Tween-80",185 % of control
same,T/C,"dose: 4.5 mg/kg/injection, schedule: Q04DX003 (ip), vehicle: saline with Tween-80",204 % of control
same,T/C,"dose: 6.25 mg/kg/injection, schedule: Q01DX009 (ip), vehicle: saline with Tween-80",95 % of control
same,T/C,"dose: 6.25 mg/kg/injection, schedule: Q04DX003 (ip), vehicle: saline with Tween-80",150 % of control
CC1(C)OC2COC3OC(C)(C)OC3(/C=N\NC(=O)c3cc4ccccc4[nH]3)C2O1 (stereo not drawn),T/C,[11],98 % of control
same,T/C,[12],104 % of control
same,T/C,[13],102 % of control
CC(=O)/C(=C/c1ccc(OC2OC(CO)C(O)C(O)C2O)cc1)C(=O)CCN(C)C (stereo not drawn),T/C,"dose: 50.0 mg/kg/injection, schedule: Q01DX005 (ip), vehicle: saline",107 % of control
same,T/C,"dose: 100.0 mg/kg/injection, schedule: Q01DX005 (ip), vehicle: saline",93 % of control
same,T/C,"dose: 200.0 mg/kg/injection, schedule: Q01DX005 (ip), vehicle: saline",100 % of control
COC(=O)C1(CC(=O)c2cccs2)NC(=S)NC(=O)C1C#N (stereo not drawn),T/C,[8],98 % of control
same,T/C,[9],100 % of control
same,T/C,[10],94 % of control
